According to paper doi:10.1101/2025.08.21.671483v1, “In vitro and in vivo activity profiles of broad-spectrum bacterial ATP synthase inhibitors” (biorxiv, 2025):

Tests used:
[1] = test system: T1, S. aureus ATCC 29740 (Newbould); experiment: microbe, parasite or virus in culture; design: species or system bacteria; CLSI broth microdilution MIC, no visible growth; details: Staphylococcus aureus, ATCC29740, read-out: TM-184 MIC
T1 construct: ATCC 29740 (Newbould)

S. aureus ATCC 29740hemB = experiment: microbe, parasite or virus in culture; details: Staphylococcus aureus, ATCC29740HEMB, read-out: MIC
S. aureus ATP synthase = molecular target: T2, S. aureus ATP synthase (Staphylococcus aureus, UniProt Q99SF0); experiment: ATP production by membrane vesicles, luciferase luminescence; type: biochemical; details: […] NADH, 1 mM ADP, 10 mM potassium phosphate; 30 min preincubation, 60 min reaction
T2 construct: gene atpE
Description: ATP production by membrane vesicles, luciferase luminescence on S. aureus ATP synthase

E. coli MC4100 WT = test system: T3, E. coli MC4100 WT; experiment: microbe, parasite or virus in culture; design: species or system bacteria; CLSI broth microdilution MIC, no visible growth; details: Escherichia coli, MC4100WT, read-out: TM-184 MIC
T3 construct: MC4100 (ATCC 35695)

[2] = test system: T4, Citrobacterfreundii ATCC 8090; experiment: organism not typed; design: species or system bacteria; CLSI broth microdilution MIC, no visible growth; details: read-out: Table 5 TM-184 MIC
T4 construct: ATCC 8090

E. coli MC4100 lptD4213 = test system: T5, E. coli MC4100 lptD4213; experiment: microbe, parasite or virus in culture; details: Escherichia coli, MC4100LPTD4213, read-out: MIC
T5 construct: MC4100 lptD4213 membrane-compromised

E. coli ATCC 25922 = test system: T6, E. coli ATCC 25922; experiment: microbe, parasite or virus in culture; design: species or system bacteria; CLSI broth microdilution MIC, no visible growth; details: Escherichia coli, ATCC25922, read-out: TM-184 MIC
T6 construct: ATCC 25922

E. coli MC4100 acrAB = test system: T7, E. coli MC4100 acrAB; experiment: microbe, parasite or virus in culture; details: Escherichia coli, MC4100ACRAB, read-out: MIC
T7 construct: MC4100 acrAB efflux-deficient

E. coli ATP synthase [3] = molecular target: T8, E. coli ATP synthase (Escherichia coli, UniProt P68699); experiment: ATP production by membrane vesicles, luciferase luminescence; type: biochemical; details: […] NADH, 1 mM ADP, 10 mM potassium phosphate; 30 min preincubation, 60 min reaction
T8 construct: gene atpE
Description: ATP production by membrane vesicles, luciferase luminescence on E. coli ATP synthase

[4] = test system: T9, Escherichia coli ATCC 25922; experiment: microbe, parasite or virus in culture; details: ATCC25922, read-out: MIC (ug/ml) second column
T9 construct: ATCC 25922

[5] = test system: T10, Escherichia coli ATCC BAA2471; experiment: microbe, parasite or virus in culture; design: species or system bacteria; CLSI broth microdilution MIC, no visible growth; details: ATCCBAA2471, read-out: Table 3 TM-184 MIC
T10 construct: ATCC BAA-2471

Escherichia coli ec310 = test system: T11, Escherichia coli ec310; experiment: microbe, parasite or virus in culture; design: species or system bacteria; CLSI broth microdilution MIC, no visible growth; details: EC310, read-out: Table 3 TM-184 MIC
T11 construct: ec310

[6] = test system: T12, Escherichia coli 70122 CW-2007; experiment: microbe, parasite or virus in culture; design: species or system bacteria; CLSI broth microdilution MIC, no visible growth; details: 70122CW2007, read-out: Table 3 TM-184 MIC
T12 construct: 70122 CW-2007

[7] = test system: T13, Escherichia coli ATCC 35218; experiment: microbe, parasite or virus in culture; design: species or system bacteria; CLSI broth microdilution MIC, no visible growth; details: ATCC35218, read-out: Table 3 TM-184 MIC
T13 construct: ATCC 35218

[8] = test system: T14, Escherichia coli 95882 CW-2011; experiment: microbe, parasite or virus in culture; design: species or system bacteria; CLSI broth microdilution MIC, no visible growth; details: 95882CW2011, read-out: Table 3 TM-184 MIC
T14 construct: 95882 CW-2011

Escherichia coli ec305 = test system: T15, Escherichia coli ec305; experiment: microbe, parasite or virus in culture; design: species or system bacteria; CLSI broth microdilution MIC, no visible growth; details: EC305, read-out: Table 3 TM-184 MIC
T15 construct: ec305

Escherichia coli ec302 = test system: T16, Escherichia coli ec302; experiment: microbe, parasite or virus in culture; design: species or system bacteria; CLSI broth microdilution MIC, no visible growth; details: EC302, read-out: Table 3 TM-184 MIC
T16 construct: ec302

Escherichia coli ec309 = test system: T17, Escherichia coli ec309; experiment: microbe, parasite or virus in culture; design: species or system bacteria; CLSI broth microdilution MIC, no visible growth; details: EC309, read-out: Table 3 TM-184 MIC
T17 construct: ec309

Escherichia coli ec308 = test system: T18, Escherichia coli ec308; experiment: microbe, parasite or virus in culture; design: species or system bacteria; CLSI broth microdilution MIC, no visible growth; details: EC308, read-out: Table 3 TM-184 MIC
T18 construct: ec308

E. coli ATP synthase [9] = molecular target: T8, E. coli ATP synthase; experiment: ATP synthesis kinetics, membrane vesicles, luciferase luminescence; type: biochemical; details: ADP varied 0.05-1 mM, NADH-driven, pre-exposure 0-10 min

C[C@H]1CC[C@]2(NC1)O[C@H]1C[C@H]3[C@@H]4CC[C@H]5CC(NC[C@H](N)Cc6ccc(I)cc6)CC[C@]5(C)[C@H]4CC[C@]3(C)[C@H]1[C@@H]2C (mixture of isomers) [TM-184]
MIC [1]: 2 µg/mL | MIC (S. aureus ATCC 29740hemB): ≤ 0.25 µg/mL | IC50 (S. aureus ATP synthase): 0.7 ± 0.33 µM | MIC (E. coli MC4100 WT): 8 µg/mL | MIC [2]: 8 µg/mL | MIC (E. coli MC4100 lptD4213): 2 µg/mL | MIC (E. coli ATCC 25922): 4 µg/mL | MIC (E. coli MC4100 acrAB): 4 µg/mL | IC50 (E. coli ATP synthase [3]): 1.57 ± 0.17 µM | MIC [4]: 4 µg/mL | MIC [5]: 16 µg/mL | MIC (Escherichia coli ec310): 16 µg/mL | MIC [6]: 16 µg/mL | MIC [7]: 16 µg/mL | MIC [8]: 16 µg/mL | MIC (Escherichia coli ec305): 2 µg/mL | MIC (Escherichia coli ec302): 16 µg/mL | MIC (Escherichia coli ec309): 16 µg/mL | MIC (Escherichia coli ec308): 4 µg/mL | Ki (E. coli ATP synthase [9]): 0.8 to 1.3 µM

O=[N+]([O-])c1ccc(Cl)c2nonc12 [4-chloro-7-nitrobenzofurazan, reference compound]
Ki (E. coli ATP synthase [9]; positive control, covalent): 1.8 µM
